Earlier results, collected in patent US20030073580A1, “Composition for treating cells and method for qualitatively and quantitatively customizing the formulation thereof” (priority 2001, published 2003).
Like-named read-outs stand apart in the source and are kept apart here.

Test system: plant leaves
[1] = Sulfate 0.1 Mg SO4/L (0.0334 milligrams elemental S)
[2] = Sulfate 1.0 Mg SO4/L (0.3340 milligrams elemental S)
[3] = Sulfate 10.0 Mg SO4/L (3.3400 milligrams elemental S)
[4] = Sulfate 50.0 Mg SO4/L (16.7000 milligrams elemental S)
[5] = Sulfate 200.0 Mg SO4/L (66.8000 milligrams elemental S)

Compound: O=S(=O)(O)O [Sulfate]
- Inorganic S [1]: 0.003 Percentage of Dry Weight
- Leaf Dry Wt [1]: 1.1 g/plant
- Nitrate N [1]: 1.39 Percentage of Dry Weight
- Organic N [1]: 2.23 Percentage of Dry Weight
- Organic S [1]: 0.11 Percentage of Dry Weight
- Protein N [1]: 0.96 Percentage of Dry Weight
- Inorganic S [2]: 0.003 Percentage of Dry Weight
- Leaf Dry Wt [2]: 2.4 g/plant
- Nitrate N [2]: 1.37 Percentage of Dry Weight
- Organic N [2]: 2.21 Percentage of Dry Weight
- Organic S [2]: 0.12 Percentage of Dry Weight
- Protein N [2]: 1.28 Percentage of Dry Weight
- Inorganic S [3]: 0.009 Percentage of Dry Weight
- Leaf Dry Wt [3]: 3.4 g/plant
- Nitrate N [3]: 0.06 Percentage of Dry Weight
- Organic N [3]: 1.19 Percentage of Dry Weight
- Organic S [3]: 0.17 Percentage of Dry Weight
- Protein N [3]: 2.56 Percentage of Dry Weight
- Inorganic S [4]: 0.100 Percentage of Dry Weight
- Leaf Dry Wt [4]: 4.7 g/plant
- Nitrate N [4]: 0.00 Percentage of Dry Weight
- Organic N [4]: 0.51 Percentage of Dry Weight
- Organic S [4]: 0.26 Percentage of Dry Weight
- Protein N [4]: 3.25 Percentage of Dry Weight
- Inorganic S [5]: 0.360 Percentage of Dry Weight
- Leaf Dry Wt [5]: 4.7 g/plant
- Nitrate N [5]: 0.10 Percentage of Dry Weight
- Organic N [5]: 0.45 Percentage of Dry Weight
- Organic S [5]: 0.25 Percentage of Dry Weight
- Protein N [5]: 3.20 Percentage of Dry Weight

Compound: S1SSSSSSS1 [sulfur]
- free nitrate nitrogen in plant leaves (available sulfur approximately 16.7 mg per liter): zero
- optimal concentration of available sulfur in a fertilizer mixture (concentration at which free nitrate drops to zero and organic sulfur and protein nitrogen reach their maximum): approximately 16.7 mg per liter
